# Key:
# [1] = Fluorocarbon (F-decalin) emulsions: average particle size and stability; assay type: physicochemical; details: perfluorodecalin (50% w/v) emulsions, 2 or 3% w/v sole surfactant, sonication
# Procedure: ^a Emulsions prepared by microfluidization.
# Additional stable perfluorodecalin (50% w/v) emulsions based on the perfluoroalkylated phosphatidylcholines 11 or 12 (2 or 3% w/v) as the sole surfactant have been prepared by sonication.
# ^a Emulsions prepared by sonication
# ^b The emulsions are stored at 25° C.
# ^c The emulsions are stored at 50° C.
# ^a All the emulsions are prepared by microfluidization and stored at
# The new perfluoroalkylated surfactants were solubilized or dispersed into water. Then the fluorocarbon was added under agitation. Any emulsification method like sonication can be used but mechanical procedures such as microfluidization or high pressure homogenization are preferred. The emulsion obtained can be used as an O2 carrier. The significant stabilization effect which can be obtained by incorporating the new F-alkyl surfactants is illustrated for various emulsion formulations (see Tables above).
# [2] = Liposome preparation: average size and stability; assay type: physicochemical
# Procedure: 1) Lipid 12 dissolved in chloroform was placed in a round bottom flask and the solvent evaporated by rotation under argon to produce a uniform film of dry lipid. Residual traces of chloroform were removed under vacuum (10^-3 mm Hg, 3 h). Dried lipid is suspended in HEPES buffer (10^-2 M,pH 7), vortexed for 5 ran., then probe sonicated (dial 7 on a Branson B30 sonifier, Power 4, Pulse 50, 3 mn.) 15° C. above phase transition temperature, to produce a clear bluish dispersion. Final concentration of 12 is 3% (w/v). Average size measurements were realised by light scattering on a Coulter Model N4SD, sub-Micron Particle Analyser: 0,12 μm.
# 2) Same dispersion procedure applied to powder lipid 12 produced a clear dispersion with an average particle size 0,12 μm.
# Liposomes were observed by electronic microscopy after freeze-etching as unilamellar and multilamellar vesicles.
# [3] = tested on: mice; experiment: Injection into the tail vein of mice (deaths, growth); assay type: in vivo; details: 500 μl in NaCl 9%, 10 mice of 20-25g, observed for 35 days
smiles,measurement,setting,value
"C[N+](C)(C)CCOP(=O)([O-])OCC(COC(=O)CCCCC(F)(F)C(F)(F)C(F)(F)C(F)(F)C(F)(F)C(F)(F)F)OC(=O)CCCCC(F)(F)C(F)(F)C(F)(F)C(F)(F)C(F)(F)C(F)(F)F (racemic) [Compound 12, 1,2-di [(11-F-hexyl)pentanoyl] 3-[2' -(N,N,N-trimethylamino)ethylphosphoryl] rac-glycerol]",increase in average particle size,[1],10%
same,Average size of liposomes,"[2]; 3% (w/v), from dried lipid film, HEPES buffer pH 7, probe sonicated, light scattering","0,12 μm"
same,average particle size of dispersion,[2]; same dispersion procedure applied to powder lipid,"0,12 μm"
same,concentration of which injection caused no deaths and did not perturb the normal growth,[3],100000 µg/mL

# From US5344930A, “Fluorine and phosphorous-containing amphiphilic molecules with surfactant properties” (Alliance Pharmaceutical Corp., priority 1993, dated 1994)
